Assay results published in ChEMBL document CHEMBL1201862, “PubChem BioAssay data set” (2004).
Calls of active or inactive are those of the source. No rule for the calls is given here.

Experiments:
[1] = target: T1, High affinity choline transporter 1 (Homo sapiens, UniProt Q9GZV3); experiment: CHT inhibitors, dose response, cell-based, 5-point CRC, membrane potential dye (AID 504840); assay type: functional
T1 sequence (Q9GZV3 whole entry): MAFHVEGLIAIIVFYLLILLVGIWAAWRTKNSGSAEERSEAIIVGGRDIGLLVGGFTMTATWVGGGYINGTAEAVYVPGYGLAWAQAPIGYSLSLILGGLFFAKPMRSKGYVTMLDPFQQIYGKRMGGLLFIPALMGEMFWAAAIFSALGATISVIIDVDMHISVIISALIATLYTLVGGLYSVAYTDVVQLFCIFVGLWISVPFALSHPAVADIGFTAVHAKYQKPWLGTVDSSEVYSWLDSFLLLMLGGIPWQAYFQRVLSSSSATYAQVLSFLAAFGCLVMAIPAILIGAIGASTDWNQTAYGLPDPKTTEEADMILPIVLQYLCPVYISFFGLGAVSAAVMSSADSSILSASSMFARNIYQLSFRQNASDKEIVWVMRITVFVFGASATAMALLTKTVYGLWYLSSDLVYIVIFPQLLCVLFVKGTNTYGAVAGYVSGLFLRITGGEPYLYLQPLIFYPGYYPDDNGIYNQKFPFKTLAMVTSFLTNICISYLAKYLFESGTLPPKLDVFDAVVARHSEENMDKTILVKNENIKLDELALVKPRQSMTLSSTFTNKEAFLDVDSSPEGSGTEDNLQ

[2] = target: T1, High affinity choline transporter 1; experiment: CHT inhibitors, dose response, cell-based, 10-point CRC, membrane potential dye (AID 588401); assay type: functional;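 also: membrane potential dye fluorescence of choline-evoked depolarization via CHT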

IC50 [1]: 9.45 µM (active)
IC50 [2]: 6.48 µM (active)
Structure (SMILES): CC(/C=C1\SC(=S)N(CC(=O)O)C1=O)=C\c1ccccc1
